Patent US5236928A, “Imidazole derivatives bearing acidic functional groups at the 5-position, their compositions and methods of use as angiotensin II antagonists” (Merck & Co., Inc., priority 1992, dated 1993)

Tested on: BALB 3T3/H-ras
Test: BALB 3T3/H-ras inhibition activity
Format: cell-based

## CC(C)C(C)CC[C@@H](C)C1CCN=C2C3=C(CC[C@@]21C)[C@@]1(C)CC[C@H](O)CC1CC3 (stereo partly shown) [UCA1064-B]
  BALB 3T3/H-ras Inhibition Activity IC50: 3.5 µg/mL
